Experimental data from PubChem BioAssay (NCI).
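Following 48 hours of exposure in 96-well plates, responses at five concentrations were used to interpolate endpoints linearly. TGI: total growth inhibition.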

Tests used:
Experiment in all cases: DTP human tumour cell line panel, 48 h
NCI-H460 lung = system: NCI-H460 lung
OVCAR-3 ovarian = system: OVCAR-3 ovarian
HOP-92 NSCLC = system: HOP-92 NSCLC
UO-31 renal = system: UO-31 renal
RPMI-8226 leukemia = system: RPMI-8226 leukemia
MDA-N = system: MDA-N
M14 melanoma = system: M14 melanoma
HT29 colon = system: HT29 colon
CAKI-1 renal = system: CAKI-1 renal
OVCAR-5 ovarian = system: OVCAR-5 ovarian
SK-MEL-2 melanoma = system: SK-MEL-2 melanoma
MCF7 breast = system: MCF7 breast
HS 578T breast = system: HS 578T breast
BT-549 breast = system: BT-549 breast
A549 NSCLC = system: A549 NSCLC
KM12 colon = system: KM12 colon
COLO 205 colon = system: COLO 205 colon
UACC-257 melanoma = system: UACC-257 melanoma
HCC-2998 colon = system: HCC-2998 colon
DU-145 prostate = system: DU-145 prostate
SNB-75 CNS = system: SNB-75 CNS
OVCAR-4 ovarian = system: OVCAR-4 ovarian
A498 renal = system: A498 renal
IGROV1 ovarian = system: IGROV1 ovarian
UACC-62 melanoma = system: UACC-62 melanoma
SW-620 colon = system: SW-620 colon
SF-295 CNS = system: SF-295 CNS
PC-3 prostate = system: PC-3 prostate
SNB-19 CNS = system: SNB-19 CNS
SK-MEL-28 melanoma = system: SK-MEL-28 melanoma
HL-60(TB) leukemia = system: HL-60(TB) leukemia
U251 CNS = system: U251 CNS
RXF 393 renal = system: RXF 393 renal
TK-10 renal = system: TK-10 renal
NCI-H522 lung = system: NCI-H522 lung
SN12C renal = system: SN12C renal
K-562 leukemia = system: K-562 leukemia
T-47D breast = system: T-47D breast
HCT-116 colon = system: HCT-116 colon
NCI-H23 lung = system: NCI-H23 lung
MDA-MB-435 = system: MDA-MB-435
NCI/ADR-RES ovarian = system: NCI/ADR-RES ovarian
SK-MEL-5 melanoma = system: SK-MEL-5 melanoma
OVCAR-8 ovarian = system: OVCAR-8 ovarian
SF-268 CNS = system: SF-268 CNS
HOP-62 NSCLC = system: HOP-62 NSCLC
HCT-15 colon = system: HCT-15 colon
NCI-H226 lung = system: NCI-H226 lung
EKVX NSCLC = system: EKVX NSCLC
SF-539 CNS = system: SF-539 CNS
786-0 renal = system: 786-0 renal
LOX IMVI melanoma = system: LOX IMVI melanoma
ACHN renal = system: ACHN renal
SK-OV-3 ovarian = system: SK-OV-3 ovarian
MALME-3M melanoma = system: MALME-3M melanoma
MDA-MB-231 breast = system: MDA-MB-231 breast
CCRF-CEM leukemia = system: CCRF-CEM leukemia
SR leukemia = system: SR leukemia

CC(C)NC(=O)CN1CCN(c2c(O)c3c(c(O)c2Cl)C(=O)C=CC3=O)CC1
TGI (NCI-H460 lung): 22.1 µM
TGI (OVCAR-3 ovarian): 2.97 µM
TGI (HOP-92 NSCLC): 4.16 µM
TGI (UO-31 renal): 2.64 µM
TGI (RPMI-8226 leukemia): 7.27 µM
TGI (MDA-N): 3.43 µM
TGI (M14 melanoma): 2.93 µM
TGI (HT29 colon): 2.58 µM
TGI (CAKI-1 renal): 5 µM
TGI (OVCAR-5 ovarian): 6.54 µM
TGI (SK-MEL-2 melanoma): 3.1 µM
TGI (MCF7 breast): 3.47 µM
TGI (HS 578T breast): 6.42 µM
TGI (BT-549 breast): 2.85 µM
TGI (A549 NSCLC): 20.3 µM
TGI (KM12 colon): 18.4 µM
TGI (COLO 205 colon): 2.89 µM
TGI (UACC-257 melanoma): 3.25 µM
TGI (HCC-2998 colon): 10 µM
TGI (DU-145 prostate): 7.31 µM
TGI (SNB-75 CNS): 11.3 µM
TGI (OVCAR-4 ovarian): 3.12 µM
TGI (A498 renal): 7.29 µM
TGI (IGROV1 ovarian): 4.66 µM
TGI (UACC-62 melanoma): 3.22 µM
TGI (SW-620 colon): 1.92 µM
TGI (SF-295 CNS): 19.7 µM
TGI (PC-3 prostate): 4.75 µM
TGI (SNB-19 CNS): 26.9 µM
TGI (SK-MEL-28 melanoma): 3.17 µM
TGI (HL-60(TB) leukemia): 0.642 µM
TGI (U251 CNS): 10.3 µM
TGI (RXF 393 renal): 2.92 µM
TGI (TK-10 renal): 4.27 µM
TGI (NCI-H522 lung): 3.33 µM
TGI (SN12C renal): 3.28 µM
TGI (K-562 leukemia): > 100 µM
TGI (T-47D breast): 3.67 µM
TGI (HCT-116 colon): 2.61 µM
TGI (NCI-H23 lung): 3.02 µM
TGI (MDA-MB-435): 3.38 µM
TGI (NCI/ADR-RES ovarian): 10.7 µM
TGI (SK-MEL-5 melanoma): 3.45 µM
TGI (OVCAR-8 ovarian): 3.81 µM
TGI (SF-268 CNS): 4.04 µM
TGI (HOP-62 NSCLC): 18.6 µM
TGI (HCT-15 colon): 3.19 µM
TGI (NCI-H226 lung): 41.5 µM
TGI (EKVX NSCLC): 12 µM
TGI (SF-539 CNS): 3.66 µM
TGI (786-0 renal): 6.14 µM
TGI (LOX IMVI melanoma): 1.92 µM
TGI (ACHN renal): 4.9 µM
TGI (SK-OV-3 ovarian): 24.3 µM
TGI (MALME-3M melanoma): 2.7 µM
TGI (MDA-MB-231 breast): 4.26 µM

COc1ccc2c(c1)CCc1c-2n(CCN2CCCCC2)c2ccc(OC)cc12
TGI (NCI-H460 lung): > 100 µM
TGI (OVCAR-3 ovarian): > 100 µM
TGI (UO-31 renal): > 100 µM
TGI (RPMI-8226 leukemia): > 100 µM
TGI (MDA-N): > 100 µM
TGI (M14 melanoma): > 100 µM
TGI (HT29 colon): > 100 µM
TGI (CAKI-1 renal): > 100 µM
TGI (OVCAR-5 ovarian): > 100 µM
TGI (SK-MEL-2 melanoma): > 100 µM
TGI (CCRF-CEM leukemia): > 100 µM
TGI (MCF7 breast): > 100 µM
TGI (HS 578T breast): > 100 µM
TGI (BT-549 breast): > 100 µM
TGI (A549 NSCLC): > 100 µM
TGI (COLO 205 colon): > 100 µM
TGI (UACC-257 melanoma): > 100 µM
TGI (HCC-2998 colon): > 100 µM
TGI (DU-145 prostate): > 100 µM
TGI (SNB-75 CNS): > 100 µM
TGI (OVCAR-4 ovarian): > 100 µM
TGI (A498 renal): > 100 µM
TGI (IGROV1 ovarian): > 100 µM
TGI (UACC-62 melanoma): > 100 µM
TGI (SW-620 colon): > 100 µM
TGI (SR leukemia): > 100 µM
TGI (SF-295 CNS): > 100 µM
TGI (PC-3 prostate): > 100 µM
TGI (SNB-19 CNS): > 100 µM
TGI (SK-MEL-28 melanoma): > 100 µM
TGI (U251 CNS): > 100 µM
TGI (TK-10 renal): > 100 µM
TGI (NCI-H522 lung): > 100 µM
TGI (SN12C renal): > 100 µM
TGI (K-562 leukemia): > 100 µM
TGI (T-47D breast): > 100 µM
TGI (HCT-116 colon): > 100 µM
TGI (NCI-H23 lung): > 100 µM
TGI (MDA-MB-435): > 100 µM
TGI (NCI/ADR-RES ovarian): > 100 µM
TGI (SK-MEL-5 melanoma): > 100 µM
TGI (OVCAR-8 ovarian): > 100 µM
TGI (SF-268 CNS): > 100 µM
TGI (HOP-62 NSCLC): > 100 µM
TGI (HCT-15 colon): > 100 µM
TGI (NCI-H226 lung): 56.7 µM
TGI (EKVX NSCLC): > 100 µM
TGI (786-0 renal): > 100 µM
TGI (LOX IMVI melanoma): > 100 µM
TGI (ACHN renal): > 100 µM
TGI (SK-OV-3 ovarian): > 100 µM
TGI (MALME-3M melanoma): > 100 µM
TGI (MDA-MB-231 breast): > 100 µM
